Experimental data as given in patent US10351915B2 (Berg LLC, priority 2009, dated 2019).

What was measured:
[1] = system: Lactate Dehydrogenase (LDH); test: Western blot, Lactate Dehydrogenase levels; assay type: cell-based, human
Description: In this experiment, the cells were additionally treated with either 5 mM glucose (“5G”) or 22 mM glucose (“22G”). The samples derived from the cells were processed and run on a 4-12% Bis-Tris Novex NuPAGE gel as described above. The gels were run, transferred and stained essentially as described above.
After transfer each blot was dried for 15-20 minutes, activated with methanol for 5 seconds, washed with water for 5 minutes, and TBST for 15 minutes. The blots were blocked for 1 hour with 5% blocking reagent in TBS-T at room temperature and then washed 3 times with TBS-T (1×-15′; 2×5′ each) and probed with the primary antibody for Lactate Dehydrogenase (abcam ab2101; polyclonal) in 5% BSA (at 1:1000 dilutions) by incubation overnight at 4 deg C. with shaking. After the overnight incubation with primary antibody for Lactate Dehydrogenase, the blots were washed 3 times with TBS-T (1×-15′; 2×5′ each) and probed with the secondary antibody (rabbit antigoat; 1:10,000 dilution) for 1 h at room temperature. After 1 h of incubation with secondary antibodies, the blots were washed 3 times with TBS-T (1×-15′; 2×5′ each) and then incubated with ECF reagent for 5 mins and then each blot scanned with 5100 Fuji Laser scanner at 25 uM resolution, 16 bit, green laser, at 400V and at 500 V.
In this experiment, the cells were additionally treated with either 5 mM glucose (“5G”) or 22 mM glucose (“22G”). The samples derived from the cells were processed and the gels were run, transferred, stained and scanned essentially as described above.
The levels of LDH and PDH were determined by probing the blots successively with primary antibodies for LDH and PDH, essentially as described above.
The above blots were stripped by incubating for 30 minutes with methanol, followed by two 10 minute washes with TBS-T, then 30 minutes of incubation with Stripping buffer at 50 deg C., and followed by two washes with 100 ml or more of TBS-T for 30′ each. The blots were scanned in laser scanner to check for complete stripping. […]

[2] = cited from earlier work
Hif1 alpha = test: Western blot, Hif1 alpha levels; assay type: cell-based, human; settings: whole cell lysates of normal cells
Description: The Actin blots were stripped by incubating for 30 minutes with methanol, followed by two 10 minute washes with TBS-T, then 30 minutes of incubation with Stripping buffer at 50 deg C., and followed by two washes with 100 ml or more of TBS-T for 30′ each. The blots were scanned in laser scanner to check for complete stripping. The blots were activated with methanol for 5 seconds, washed with water for 5 minutes, and TBST for 15 minutes. The blots were blocked for 1 hour with 5% blocking reagent in TBS-T at room temperature and then washed 3 times with TBS-T (1×-15′; 2×5′ each) and probed with the primary antibody for Hif 1 alpha, Caspase 3 or PDHB in 5% BSA (at 1:200 by incubation overnight at 4 deg C. with gentle shaking. The primary antibody for Hif 1 alpha (Abcam ab2185; antirabbit) was at 1:500 dilution in 5% BSA. The primary antibody for Caspase 3 (Santacruz sc7272; antirabbit) was at 1:200 dilution in 5% BSA. The primary antibody for Pyruvate Dehydrogenase beta (PDHB) (Novus Biologicals H00005162-M03; antimouse) was at 1:500 dilution in 5% BSA. After incubation with primary antibodies, the membranes were washed 3 times with TBS-T (1×-15′; 2×5′ each) and probed with the secondary antibody (PDHB antimouse; Hif 1a and Caspase 3 antirabbit; 1:10,000 dilution) for 1 h at room temperature. […]

COC1=C(OC)C(=O)C(C/C=C(\C)CC/C=C(\C)CC/C=C(\C)CC/C=C(\C)CC/C=C(\C)CC/C=C(\C)CC/C=C(\C)CC/C=C(\C)CC/C=C(\C)CCC=C(C)C)=C(C)C1=O [Q10, Coenzyme Q10]
Lactate Dehydrogenase Normalized Volume (24 h) ([1]; HepG2, 5g glucose, 24 h, amount 50): 7900
LDH expression ([1]; cancer): reduced
LDH expression ([1]; normal cells): minimal effect
solubility in water [2]: insoluble in water
lower band of Hif1a (Hif1 alpha): showed a decrease as well
